The compounds below were run against T1, NaV 1.8 channel (Homo sapiens, UniProt Q9Y5Y9) (assay: VIPR optical membrane potential assay with electrical stimulation, NaV1.8 inhibition). Settings: activity against NaV 1.8 channel.
T1 construct: expressed in transfected cells; host or cells: HEK293
T1 sequence (Q9Y5Y9 whole entry): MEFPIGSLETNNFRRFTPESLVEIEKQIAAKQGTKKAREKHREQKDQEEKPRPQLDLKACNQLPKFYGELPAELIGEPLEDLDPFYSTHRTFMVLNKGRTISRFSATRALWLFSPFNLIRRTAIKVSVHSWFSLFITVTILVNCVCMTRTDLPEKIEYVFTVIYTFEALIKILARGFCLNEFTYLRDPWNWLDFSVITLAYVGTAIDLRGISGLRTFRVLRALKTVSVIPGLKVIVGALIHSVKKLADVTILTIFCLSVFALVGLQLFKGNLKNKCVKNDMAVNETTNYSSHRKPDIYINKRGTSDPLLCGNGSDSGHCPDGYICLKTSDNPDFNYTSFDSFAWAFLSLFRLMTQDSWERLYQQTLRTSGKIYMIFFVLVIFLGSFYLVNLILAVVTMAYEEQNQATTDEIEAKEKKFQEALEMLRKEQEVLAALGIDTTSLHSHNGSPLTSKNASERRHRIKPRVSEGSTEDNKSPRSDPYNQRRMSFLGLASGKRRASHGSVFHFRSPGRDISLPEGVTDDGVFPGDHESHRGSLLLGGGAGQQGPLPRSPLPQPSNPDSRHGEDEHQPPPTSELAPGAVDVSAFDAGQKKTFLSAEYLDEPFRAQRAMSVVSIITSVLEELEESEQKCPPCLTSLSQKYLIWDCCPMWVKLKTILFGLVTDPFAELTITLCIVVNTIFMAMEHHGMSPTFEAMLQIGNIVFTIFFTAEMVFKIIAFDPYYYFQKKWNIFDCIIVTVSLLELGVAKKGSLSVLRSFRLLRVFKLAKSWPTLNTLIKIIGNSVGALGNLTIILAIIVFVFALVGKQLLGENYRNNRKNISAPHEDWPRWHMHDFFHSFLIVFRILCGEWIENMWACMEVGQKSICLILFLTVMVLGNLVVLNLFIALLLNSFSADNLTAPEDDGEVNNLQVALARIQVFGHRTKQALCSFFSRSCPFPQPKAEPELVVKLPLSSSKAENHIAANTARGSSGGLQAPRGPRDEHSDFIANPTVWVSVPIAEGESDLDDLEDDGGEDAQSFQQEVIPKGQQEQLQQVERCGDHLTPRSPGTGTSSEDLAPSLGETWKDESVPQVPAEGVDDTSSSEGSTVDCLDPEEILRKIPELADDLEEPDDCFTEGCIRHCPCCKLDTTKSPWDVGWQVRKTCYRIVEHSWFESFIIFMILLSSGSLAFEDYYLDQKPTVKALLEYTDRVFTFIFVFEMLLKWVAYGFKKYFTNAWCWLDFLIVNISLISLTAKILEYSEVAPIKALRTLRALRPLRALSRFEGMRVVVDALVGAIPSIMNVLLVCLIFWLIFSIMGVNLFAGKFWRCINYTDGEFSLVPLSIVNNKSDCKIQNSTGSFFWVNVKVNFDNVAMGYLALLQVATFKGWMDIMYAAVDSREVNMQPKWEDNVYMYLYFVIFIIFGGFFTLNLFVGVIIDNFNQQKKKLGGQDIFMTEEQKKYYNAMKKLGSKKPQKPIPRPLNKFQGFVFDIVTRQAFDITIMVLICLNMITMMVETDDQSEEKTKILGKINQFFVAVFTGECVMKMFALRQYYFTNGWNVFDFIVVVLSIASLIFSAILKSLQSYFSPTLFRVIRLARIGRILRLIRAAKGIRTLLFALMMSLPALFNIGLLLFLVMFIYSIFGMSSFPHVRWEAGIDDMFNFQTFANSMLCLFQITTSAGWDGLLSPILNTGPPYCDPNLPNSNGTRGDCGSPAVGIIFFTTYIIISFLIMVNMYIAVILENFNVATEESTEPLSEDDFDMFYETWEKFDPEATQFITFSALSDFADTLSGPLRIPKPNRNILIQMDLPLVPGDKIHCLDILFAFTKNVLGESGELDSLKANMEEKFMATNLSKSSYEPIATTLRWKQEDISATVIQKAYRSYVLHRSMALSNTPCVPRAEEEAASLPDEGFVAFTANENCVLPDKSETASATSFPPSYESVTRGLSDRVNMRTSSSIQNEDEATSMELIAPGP
Format: cell-based
Method: Compounds of the invention are useful as antagonists of voltage-gated sodium ion channels. Antagonist properties of test compounds were assessed as follows. Cells expressing the NaV of interest were placed into microtiter plates. After an incubation period, the cells were stained with fluorescent dyes sensitive to the transmembrane potential. The test compounds were added to the microtiter plate. The cells were stimulated with either a chemical or electrical means to evoke a NaV dependent membrane potential change from unblocked channels, which was detected and measured with trans-membrane potential-sensitive dyes. Antagonists were detected as a decreased membrane potential response to the stimulus. The optical membrane potential assay utilized voltage-sensitive FRET sensors described by Gonzalez and Tsien (See, Gonzalez, J. E. and R. Y. Tsien (1995) “Voltage sensing by fluorescence resonance energy transfer in single cells” Biophys J 69(4): 1272-80, and Gonzalez, J. E. and R. Y. Tsien (1997) “Improved indicators of cell membrane potential that use fluorescence resonance energy transfer” Chem Biol 4(4): 269-77) in combination with instrumentation for measuring fluorescence changes such as the Voltage/Ion Probe Reader (VIPR®) (See, Gonzalez, J. E., K. Oades, et al. (1999) “Cell-based assays and instrumentation for screening ion-channel targets” Drug Discov Today 4(9): 431-439).
C) VIPR® Optical Membrane Potential Assay Method with Electrical Stimulation
The following was an example of how NaV1.8 inhibition activity was measured using the optical membrane potential method #2. Other subtypes were performed in an analogous mode in a cell line expressing the NaV of interest.
HEK293 cells stably expressing NaV1.8 were plated into 96-well microtiter plates. After an appropriate incubation period, the cells were stained with the voltage sensitive dyes CC2-DMPE/DiSBAC6(3) as follows.
2×CC2-DMPE/DiSBAC6(3)=8 μM CC2-DMPE/8 μM DiSBAC6(3): 10 mM CC2-DMPE and DiSBAC6(3) was vortexed with an equivalent volume of 10% pluronic, followed by vortexing in required amount of Bath Solution #1. Each cell plate required 5 mL of 2×CC2-DMPE/DiSBAC6(3). 50 μL of 2×CC2-DMPE/DiSBAC6(3) was added to wells containing washed cells, resulting in a 4 μM final staining concentration of both dyes. The cells were stained for 30 minutes in the dark at RT.
2×ABSC1=1 mM ABSC1: The required amount of 200 mM ABSC1 was added to a 50 ml conical tube and mixed with 1 μL 10% pluronic for each mL of solution made and vortexed together. Then Bath Solution #1 was added to make up a 2× solution. Finally, the ABSC1 was added.
The 2×ABSC1 solution was used to solvate compound plates. Note that compound plates were made at 2× drug concentration. The stained plate was washed again, leaving residual volume of 50 μL. Added 50 μL/well of the 2×ABSC1. The cells were stained for 30 minutes in the dark at RT.
The electrical stimulation instrument and methods of use are described in ION Channel Assay Methods PCT/US01/21652 and Nat Biotech 2006, 24(4), 439-446, both herein incorporated by reference. The instrument comprises a microtiter plate handler, an optical system for exciting the coumarin dye while simultaneously recording the coumarin and oxonol emissions, a waveform generator, a current- or voltage-controlled amplifier, and a device for inserting electrodes in well. Under integrated computer control, this instrument passed user-programmed electrical stimulus protocols to cells within the wells of the microtiter plate.
Assay Protocol • 1. Inserted or used electrodes into each well that was assayed. • 2. Used the current-controlled amplifier to deliver stimulation wave pulses for 3 s. Two seconds of pre-stimulus recording was performed to obtain the un-stimulated intensities. Five seconds of post-stimulation recording was performed to examine the relaxation to the resting state. […]
COCCOC(=O)N[C@H]1CCN(c2nc(-c3ccccc3O)nc3cc(C)ccc23)C1 [Compound 6, (S)-{1-[2-(2-Hydroxy-phenyl)-7-methyl-quinazolin-4-yl]-pyrrolidin-3-yl}-carbamic acid 2-methoxy-ethyl ester] showed an IC50 of over 5000 nM.
Compound CC(C)COC(=O)N[C@@H]1CCN(c2nc(-c3ccccc3O)nc3ccc(F)cc23)C1 [Compound 15, (R)-Isobutyl 1-(6-fluoro-2-(2-hydroxyphenyl)quinazolin-4-yl)pyrrolidin-3-ylcarbamate] has an IC50 of 1000 to 5000 nM.
In the case of Cc1ccc2c(N3CC[C@@H](NC(=O)OCC(C)(C)C)C3)nc(-c3c(O)cccc3F)nc2c1 [Compound 11, (R)-Neopentyl 1-(2-(2-fluoro-6-hydroxyphenyl)-7-methylquinazolin-4-yl)pyrrolidin-3-ylcarbamate], the IC50 is reported as under 1000 nM.
COCCOC(=O)N[C@@H]1CCN(c2nc(-c3c(O)cccc3F)nc3cc(C)ccc23)C1 [Compound 1, (R)-2-Methoxyethyl 1-(2-(2-fluoro-6-hydroxyphenyl)-7-methylquinazolin-4-yl)pyrrolidin-3-ylcarbamate] gave an IC50 of 1000 to 5000 nM.
For Cc1ccc2c(N3CC[C@H](NC(=O)OCC(C)C)C3)nc(-c3ccccc3O)nc2c1 [Compound 7, (S)-{1-[2-(2-Hydroxy-phenyl)-7-methyl-quinazolin-4-yl]-pyrrolidin-3-yl}-carbamic acid isobutyl ester], the IC50 was 1000 to 5000 nM.
Cc1ccc2c(N3CC[C@@H](NC(=O)OCC(C)C)C3)nc(-c3c(O)cccc3F)nc2c1 [Compound 8, (R)-Isobutyl 1-(2-(2-fluoro-6-hydroxyphenyl)-7-methylquinazolin-4-yl)pyrrolidin-3-ylcarbamate] was tested, and the IC50 was under 1000 nM.
For CC(C)OC(=O)N[C@@H]1CCN(c2nc(-c3ccccc3O)nc3ccc(F)cc23)C1 [Compound 16, (R)-Isopropyl 1-(6-fluoro-2-(2-hydroxyphenyl)quinazolin-4-yl)pyrrolidin-3-ylcarbamate], the IC50 was 1000 to 5000 nM.
CC(C)(C)COC(=O)N[C@@H]1CCN(c2nc(-c3ccccc3O)nc3ccc(F)cc23)C1 [Compound 4, (R)-Neopentyl 1-(6-fluoro-2-(2-hydroxyphenyl)quinazolin-4-yl)pyrrolidin-3-ylcarbamate] gave an IC50 of over 5000 nM.
With Cc1ccc2c(N3CC[C@@H](NC(=O)OCC(C)(C)C)C3)nc(-c3ccccc3C(F)F)nc2c1 [Compound 18, (R)-Neopentyl 1-(2-(2-(difluoromethyl)phenyl)-7-methylquinazolin-4-yl)pyrrolidin-3-ylcarbamate] the IC50 was under 1000 nM.
With CCCOC(=O)N[C@@H]1CCN(c2nc(-c3c(O)cccc3F)nc3cc(C)ccc23)C1 [Compound 13, (R)-Propyl 1-(2-(2-fluoro-6-hydroxyphenyl)-7-methylquinazolin-4-yl)pyrrolidin-3-ylcarbamate] the IC50 was under 1000 nM.
For CCOC(=O)N[C@@H]1CCN(c2nc(-c3c(O)cccc3F)nc3cc(C)ccc23)C1 [Compound 10, (R)-Ethyl 1-(2-(2-fluoro-6-hydroxyphenyl)-7-methylquinazolin-4-yl)pyrrolidin-3-ylcarbamate], the IC50 was 1000 to 5000 nM.
With Cc1ccc2c(N3CC[C@@H](NC(=O)OC(C)C)C3)nc(-c3ccccc3O)nc2c1 [Compound 12, (R)-Isopropyl 1-(2-(2-hydroxyphenyl)-7-methylquinazolin-4-yl)pyrrolidin-3-ylcarbamate] the IC50 was under 1000 nM.
CCCOC(=O)N[C@@H]1CCN(c2nc(-c3ccccc3O)nc3cc(C)ccc23)C1 [Compound 3, (R)-Propyl 1-(2-(2-hydroxyphenyl)-7-methylquinazolin-4-yl)pyrrolidin-3-ylcarbamate] was tested, and the IC50 was under 1000 nM.
In the case of COCCOC(=O)N[C@@H]1CCN(c2nc(-c3ccccc3O)nc3cc(C)ccc23)C1 [Compound 14, (R)-2-Methoxyethyl 1-(2-(2-hydroxyphenyl)-7-methylquinazolin-4-yl)pyrrolidin-3-ylcarbamate], the IC50 is reported as 1000 to 5000 nM.
Cc1ccc2c(N3CC[C@@H](NC(=O)OCC(C)C)C3)nc(-c3ccccc3O)nc2c1 [Compound 5, (R)-Isobutyl 1-(2-(2-hydroxyphenyl)-7-methylquinazolin-4-yl)pyrrolidin-3-ylcarbamate] gave an IC50 of under 1000 nM.
In the case of Cc1ccc2c(N3CC[C@@H](NC(=O)OCC(C)C)C3)nc(-c3ccccc3C(F)F)nc2c1 [Compound 17, (R)-Isobutyl 1-(2-(2-(difluoromethyl)phenyl)-7-methylquinazolin-4-yl)pyrrolidin-3-ylcarbamate], the IC50 is reported as under 1000 nM.
Compound CCOC(=O)N[C@@H]1CCN(c2nc(-c3ccccc3O)nc3cc(C)ccc23)C1 [Compound 2, (R)-Ethyl 1-(2-(2-hydroxyphenyl)-7-methylquinazolin-4-yl)pyrrolidin-3-ylcarbamate] has an IC50 of under 1000 nM.
In the case of Cc1ccc2c(N3CC[C@@H](NC(=O)OCC(C)(C)C)C3)nc(-c3ccccc3O)nc2c1 [Compound 9, (R)-Neopentyl 1-(2-(2-hydroxyphenyl)-7-methylquinazolin-4-yl)pyrrolidin-3-ylcarbamate], the IC50 is reported as under 1000 nM.

— patent publication US8158637B2, “Quinazolines useful as modulators of voltage gated ion channels” (Vertex Pharmaceuticals Incorporated, priority 2005, dated 2012)
